# Data: the METLIN SMRT retention time set (Domingo-Almenara et al. 2019)
# Assay: gradient 5% acetonitrile 3 min, to 50% in 2 min, to 85% in 15 min, held 3 min, 100 µL/min
# Settings: column: Zorbax Extend-C18 2.1 x 50 mm; eluents: water / acetonitrile, 0.1% formic acid
# In short: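 Retention times of pure standards were taken from adduct peaks that were selected by computer and manually inspected. Over 3 months, mixtures of ~100 molecules were run by HPLC–quadrupole time-of-flight mass spectrometry in positive and negative ionization mode. The Zorbax Extend-C18 column (2.1 × 50 mm, 1.8 μm) ran at 100 μL/min in water and acetonitrile, each containing 0.1% formic acid, with 40 μL dead volume and 900 μL dwell volume.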
row,Structure (SMILES),RP-LC retention time
1,Cc1cc(C(=O)NCc2ccc(F)cc2)n(-c2ccccc2)n1,813 s
2,O=C(Cn1nc2c(SC3CCCCC3)nccn2c1=O)N1CCN(c2ccc(F)cc2)CC1,1080 s
3,CC(O)(CCc1ccccc1)CNC(=O)c1ccc(F)cc1 (centres undefined),758 s
4,O=C(NC1CCCCC1)N1CCCC(Cn2c(C3CC3)nc3cccnc32)C1 (centres undefined),668 s
5,O=C(c1ccccn1)N1CCCC(OCc2nc(C3CC3)no2)C1 (centres undefined),619 s
6,CCCN(CC1CCOC1)C(=O)c1cccc(Br)c1 (centres undefined),852 s
7,O=C(CC(=O)c1ccccc1)Nc1ccc2c(c1)OCCO2,769 s
8,Cc1ccc(C2CC(=O)c3cnc(Nc4nc(C)c5cc(C)c(C)cc5n4)nc3C2)cc1 (centres undefined),862 s
9,O=C(Nc1ccc(F)c(F)c1)c1c(O)c2cccnc2n(-c2ccccc2)c1=O,916 s
10,Cc1ccc(Cl)cc1NC(=O)CN1CCN(Cc2ccc(F)cc2)C(=O)C1=O,804 s
11,Cn1cccc(C(=O)NCCn2nc(-c3cccs3)ccc2=O)c1=O,591 s
12,O=C(c1cccs1)N1CCN(c2[nH]ncc2-c2ccccc2)CC1,808 s
13,CCCCN(C)C(=O)c1cc2sc(C)c(CN3CCCC3)c2[nH]1,671 s
14,CCN1C(=O)c2cc(C(=O)Nc3ccc(Cl)cc3)nn2CC1(C)C(=O)NC1CCCC1 (centres undefined),860 s
15,CCOC(=O)c1[nH]c(C)c(CCC(=O)N2CCC(C(=O)NCc3ccc4c(c3)OCO4)CC2)c1C,764 s
16,Cc1nn(CC(=O)Nc2ccc(Cl)cc2F)c(=O)c2noc(C)c12,796 s
17,CN(C)S(=O)(=O)N(CC(=O)Nc1cc(C(F)(F)F)ccc1Cl)c1ccccc1,1090 s
18,CN1c2ccc(Cl)cc2C(=O)NC12CCN(C(=O)NCc1ccc(F)cc1)CC2,785 s
19,CNC(=O)N1CC(C)Oc2ccc(Cl)cc21 (centres undefined),806 s
20,CN1C[C@@H](CO)C=C2c3cccc4[nH]cc(c34)C[C@@H]21,607 s
21,Cc1cnn(CC(=O)N2CCC3(CCC3O)CC2)c1 (centres undefined),607 s
22,CSc1ncccc1C(=O)N(Cc1cccs1)Cc1cccn1C,904 s
23,COc1ccc(C(=O)Nc2cccn3cnnc23)cc1F,676 s
24,COc1cc(OC)c(C(=O)CCCCN2CCC3(CC2)NC(=O)NC3=O)cc1NS(=O)(=O)c1ccc(C(F)(F)F)cc1,750 s
25,CC(=O)N[C@@H]1CN(C(=O)COc2ccc(Cl)cc2)C[C@H]1CO,633 s

row,Structure (SMILES),RP-LC retention time
1,COC(=O)c1c(C)[nH]c(C(=O)N2CCC(CC(=O)NCCN3CCCCC3)CC2)c1C,584 s
2,CCOC(=O)c1c(S(=O)(=O)N2CCC(C(=O)NCc3ccc(C)o3)CC2)c(C)n(C)c1C,764 s
3,COC(=O)c1cccc(C(=O)Nc2cc(C)ccc2C)n1,936 s
4,CCS(=O)(=O)N1C[C@@H](COc2cccnc2)[C@H](c2ccccn2)C1,561 s
5,COc1cc(NC(=O)Cn2nc3c4cc(C)ccc4ncn3c2=O)cc(OC)c1,682 s
6,CC(C)n1cnc2cc(CNC(=O)c3ccc(C#N)cc3)ccc21,619 s
7,Cc1ccccc1Cn1cccc1CNC(=O)Nc1ccc2c(c1)OCO2,931 s
8,CC(C)Oc1ccccc1CN1CCC2(CC1)CN(C)CC2c1nnc(C(C)C)o1 (centres undefined),569 s
9,Cc1ccc(C#CC(C)(O)C(C)(C)C)cn1 (centres undefined),722 s
10,c1cc(CN2CCCCC2c2nncn2CC2CC2)cs1 (centres undefined),559 s
11,COc1ccc(Cl)cc1C(=O)Nc1ccc2c(c1)Sc1ncccc1C(=O)N2C,946 s
12,Cc1ccc(Cl)cc1NC(=O)Cn1cnc2c(sc3nc(-c4ccccc4)ccc32)c1=O,1070 s
13,CCc1ccc2nc(C)cc(C(=O)NC(C)C)c2c1,621 s
14,CCOC(=O)c1ccc(NC(=O)NC2CC(=O)N(C3CCCC3)C2)cc1 (centres undefined),768 s
15,CCN(CC)C(=O)C1CCCN(C(=O)c2nn(C)c3c2CN(C(=O)C2CCC2)CC3)C1 (centres undefined),681 s
16,Cc1ccc(NC(=O)N2CCC(N3CCN(Cc4ccccn4)C(=O)C3=O)CC2)c(Cl)c1,876 s
17,Cc1ccccc1CNC(=O)C1(C)CCCN(C(=O)NC2CCCCC2)C1 (centres undefined),904 s
18,Cc1cc(C)c2c(N3CCOCC3)nc(C(=O)NCC3CCCCC3)nc2n1,678 s
19,Cc1ccc(NC(=O)N(C)CCc2noc(COc3ccccc3F)n2)cc1F,943 s
20,Cc1nc(Nc2ccc(Br)cn2)sc1C(=O)NCCN1CCCC1,628 s
21,CC(C)c1nc2c(NC(=O)C3CC3)cccn2n1,733 s
22,Cc1ccc(CN2CC(c3ncc(C)n3Cc3ccccc3)C2)s1,587 s
23,Cc1cc(=O)oc2c(C)c(OCC(O)CN3CCC(C(N)=O)CC3)ccc12 (centres undefined),579 s
24,O=C(NCCC1CCN(C(=O)Nc2cc(F)cc(F)c2)CC1)C1CCC1,810 s
25,COc1cc(NC(=O)C2=C(C)OCCS2)c(Cl)cc1C(=O)N1CCN(C2CCCCC2)CC1,684 s

# Results, then the compound that gave them:
row,RP-LC retention time,Structure (SMILES)
1,872 s,COc1ccc(CN2C(=O)[C@H](OC)[C@@H]2C2=CCN(S(=O)(=O)c3cccs3)CC2)cc1
2,1060 s,Cc1c(-c2noc(-c3ccccc3)n2)nnn1-c1ccccc1
3,663 s,Cn1cnc(S(=O)(=O)N2CCC(C(=O)Nc3ccc4c(c3)OCCO4)CC2)c1
4,996 s,CCCc1nc2ccc(NC(=O)NCC)cc2c(=O)n1Cc1ccc(-c2ccccc2)cc1
5,909 s,CC(C)c1ccc(NC(=O)CN2C(=O)C3CCCCN3c3ccc(C(=O)N4CCOCC4)cc32)cc1 (centres undefined)
6,1020 s,CCc1ccc(C(C)NS(=O)(=O)c2cc3c(s2)CCN(C(=O)C2CCC2)C3)cc1 (centres undefined)
7,1190 s,Cc1ccc(NC(=O)CSc2nccc(N3CCN(c4cc(C)ccc4C)CC3)n2)c(Cl)c1
8,748 s,Cn1nc(C(=O)N2CCCC(C(=O)Nc3ccccc3)C2)c2c1CCN(C(=O)Cc1cccs1)C2 (centres undefined)
9,696 s,O=C(NCCN1CCCCC1)C1CCCN(c2ncc(-c3cccc(F)c3)cn2)C1 (centres undefined)
10,1060 s,COc1ccc(-c2nnc(-c3cccc(S(=O)(=O)N4CCCCC4)c3)o2)cc1
11,845 s,COc1ccc(OC)c(S(=O)(=O)NC(C)c2ccccc2)c1 (centres undefined)
12,938 s,O=c1n(Cc2cccc(F)c2)nc2c(S(=O)(=O)N3CCc4ccccc4C3)cccn12
13,1040 s,COc1cccc(S(=O)(=O)N2CCC3(CC2)C(OC)C(=O)N3c2cccc(F)c2)c1 (centres undefined)
14,689 s,O=C(NC1CC1)c1ncoc1-c1ccccc1C(=O)N1CCCCC1
15,821 s,Cn1cc(S(=O)(=O)NCc2ccc(F)cc2Cl)c2cccnc21
16,1110 s,C=CCn1c(=O)c2ccccc2n(Cc2nc(-c3cccc(Cl)c3)no2)c1=O
17,664 s,Cc1ccc(Nc2cc(N3CCC(C(=O)NCc4ccco4)CC3)ncn2)cc1
18,1010 s,COc1ccc(OC)c(S(=O)(=O)NCC(c2cccs2)N2CCc3ccccc32)c1 (centres undefined)
19,900 s,Cc1ccc(C)c(N2CCN(C(=O)c3cn(-c4ccc(NC(=O)C5CC5)cn4)cn3)CC2)c1
20,688 s,CCn1c(=O)c2cc(C(=O)NCc3ccc(N4CCC(C)CC4)cc3)nn2c2ccccc21

row,RP-LC retention time,Structure (SMILES)
1,736 s,CCC(C)C(NC(=O)Cc1cccc(F)c1)C(=O)Nc1nc2ccccc2[nH]1 (centres undefined)
2,720 s,CC(NS(=O)(=O)c1ccc2c(c1)CCN2C(=O)N1CCCC1)C(=O)N1CCCCC1 (centres undefined)
3,735 s,O=C(Nc1cccc(Cl)c1)Nc1ccc2nncn2c1
4,815 s,Cc1ccc(CC(=O)NC2CCN(c3nnc4ccc(C(F)(F)F)cn34)CC2)cc1
5,620 s,COc1ccc(C2=C(C)C(N3CCN(c4ccccn4)CC3)=NS2(=O)=O)cc1
6,840 s,CCOc1ccc(N2C(=O)CN(CCc3ccccc3F)[C@H]3CS(=O)(=O)C[C@H]32)cc1
7,863 s,Cc1ccc(CNC(=O)c2nnc(-c3ccc(S(=O)(=O)N4CCOCC4)cc3)o2)cc1
8,738 s,CN1C(=O)Cc2cc(C(=O)NCc3ccccc3Cl)ccc21
9,739 s,CCCCn1nc2ccc(S(=O)(=O)N3CCOCC3)cn2c1=O
10,725 s,COc1cccc2cc(-c3nnc(NC(=O)c4ccc5ncsc5c4)o3)oc12
11,1020 s,O=C(Nc1ccc(Br)cc1F)C1CCCN(c2ccc(=O)n(-c3cccc(F)c3)n2)C1 (centres undefined)
12,1050 s,Cc1oc2ncnc(N3CCCC(C(=O)Nc4cccc(Cl)c4)C3)c2c1C (centres undefined)
13,948 s,Cc1oc(-c2ccc(NC(=O)c3ccc(Br)cc3)cc2)nc1Cn1cccn1
14,718 s,COc1ccc(NC(=O)Cn2nc3nc(Nc4ccc(F)cc4)ccn3c2=O)cc1Cl
15,638 s,CCc1nnc2nc(N3CCN(C(=O)c4ccc(Br)cc4)CC3)cc(C)n12
16,752 s,Cc1cccc(S(=O)(=O)N2CCN(c3cnn4c(C5CC5)nnc4c3)CC2)c1
17,683 s,COc1ccc(C(=O)N2CCC3(C2)C(=O)Nc2ccccc23)cc1 (centres undefined)
18,577 s,O=S(=O)(c1cccnc1)N1CC[C@@H]2COCCN(Cc3cccnc3)[C@@H]2C1
19,1060 s,CCNc1nc(-c2ccc(C3CCCCC3)cc2)cs1
